In patent US11771661B2, “Method of treating post-traumatic stress disorder” (ICAHN SCHOOL OF MEDICINE AT MOUNT SINAI, priority 2013, dated 2023):

What was measured:
NMDA receptors = conditions: read-out: Ki, binding to NMDA receptors; cited from earlier work
[1] = tested on: intractable central neuropathic pain; conditions: in vivo; cited from earlier work
[2] = tested on: patients with chronic PTSD; experiment: Example 2: randomized, double-blind, midazolam-controlled crossover trial of IV ketamine, symptom ratings; assay type: in vivo, human
From the text: Patients with chronic PTSD were enrolled in a controlled study. […] Exclusion criteria included lifetime history of psychotic or bipolar disorder, current bulimia or anorexia nervosa, alcohol abuse or dependence in the previous three months, serious unstable medical illness or sleep apnea, active suicidal or homicidal ideation on presentation, or current use of any psychotropic medications. All patients underwent a physical examination and laboratory screening including routine hematologic, biochemical and urine toxicology testing, as well as an electrocardiogram to rule out unstable medical illness and active substance use. To receive the second IV infusion, a CAPS score of at least 50 was required prior to the second infusion. The Institutional Review Board at Mount Sinai approved the study, and informed consent was obtained from all study participants.
Study participants were free of concomitant psychotropic medications for two weeks prior to randomization and for the duration of the study. For each procedure day, patients were assigned to receive a single IV infusion of ketamine hydrochloride (0.5 mg/kg) or midazolam (0.045 mg/kg), administered over 40 minutes. Order of infusions (ketamine-midazolam or midazolam-ketamine) was randomly assigned and administrations were two weeks apart. […] Only the research pharmacy was aware of drug identity, and all study personnel, including investigators, anesthesiologists, raters, patients and data analysts were blinded to randomization order.
Following admission and an overnight fast, an indwelling catheter was placed in the antecubital vein of the non-dominant arm. Pulse, blood pressure, pulse-oximetry and ECG monitoring were instituted (see Murrough J et al. Antidepressant efficacy of ketamine in treatment-resistant major depression: a two-site, randomized controlled trial. The American Journal of Psychiatry. 2013 Oct. 1; 170(10):1134-42). Ratings were administered by a trained rater during the infusion and at 240 minutes after the start of the infusion. A different rater, blinded to the ratings during post-infusion on infusion, administered ratings at pre-infusion baseline, 24 hours (Day 1) post-infusion (before patients were discharged from the hospital), 48 hours (Day 2), 72 hours (Day 3), and 7 days (Day 7) post-infusion. Ratings were also administered at 10 and 13 days post-infusion, though data analyses focused on the first week post-infusion due to the expected duration of ketamine action. Patients were instructed to abstain from taking psychotropic medications and from using alcohol or substances of abuse for the duration of the trial. As described above, patients who scored ≥50 on the CAPS 2 weeks after the first infusion received an infusion of the second study drug.
The primary outcome was PTSD symptom severity at 24 hours post-infusion, assessed with the Impact of Event Scale—Revised (IES-R). Twenty-four hours post-infusion was selected as the primary endpoint, as acute sedating and other side effects were expected to have resolved, while potential symptom improvement was expected to persist at 24 hours. Secondary outcome measures included the Montgomery-Asberg Depression Rating Scale (MADRS), the Quick Inventory of Depressive Symptomatology, Self-Report (QIDS-SR), and Clinical Global Impression-Severity (CGI-S) and -Improvement (GCI-I) scales administered by a study clinician at 24 hours, 48 hours, 72 hours and 7 days post-infusion. The IES-R was also administered at 48 hours, 72 hours, and 7 days post-infusion. Additionally, the CAPS was administered 7 days post-infusion.
A mixed-model approach was employed to test effects of treatment, period, and carryover.

[3] = by treatment group (drug given first)
[4] = individual responder patients, after first infusion
[5] = response = 50% improvement in IES-R score at 24 hours post-infusion

## CN[C@@]1(c2ccccc2Cl)CCCCC1=O [R(−)]
NMDA receptors
  Ki: 1100 nM

## CN[C@]1(c2ccccc2Cl)CCCCC1=O [S(+)-ketamine]
NMDA receptors
  Ki: 3200 nM
[1]
  potency compared with racemic mixture of ketamine: two times more potent

## Cc1ncc2n1-c1ccc(Cl)cc1C(c1ccccc1F)=NC2 [midazolam]
[2]; at 2 weeks, CAPS score <50, drug given first
  number of patients whose symptoms remained significantly improved: one
[2]; at 7 days, single infusion study
  decrease in CAPS score: 13 (sd=18)
[2]; [3]
  CAPS Total (Week 1), mean: 65.69
  CAPS Total (Week 2), mean: 70.81
  CGI-I (Week 1), mean: 3.80
  CGI-I (Week 2), mean: 3.91
  IES-R Total (Week 1), mean: 36.32
  IES-R Total (Week 2), mean: 32.51
[2]; [4]
  CAPS Total (Week 1): 50
  CAPS Total (Week 2): 30
  CGI-I (Week 1): 4
  CGI-I (Week 2): 4
  IES-R Total (Day 10): 6
  IES-R Total (Week 1): 12.57
  IES-R Total (Week 2): 5
[2]; of all 35 patients
  IES-R_response No, Percent of total: 31.43%
  IES-R_response Yes, Percent of total: 14.29%
[2]; [5]
  IES-R_response No, Frequency: 11
  IES-R_response Yes, Frequency: 5
[2]; share of non-responders
  IES-R_response No, Row Pct: 55.00 Pct
[2]; share of responders
  IES-R_response Yes, Row Pct: 33.33 Pct
[2]; share of the treatment group
  IES-R_response No, Col Pct: 68.75 Pct
[2]; share of the treatment group, 24 hours post-infusion
  IES-R_response Yes, Col Pct (responded after infusion): 31.25%
